Data reported in patent US20150237877A1, “METHODS OF HANDLING PERSIMMONS” (AGROFRESH INC., priority 2012, published 2015).

Tests used:
Type in all cases: in vivo, Persimmon (Diasoyros kaki)
[1] = system: persimmons, variety Giombo; assay: Example 1: pulp firmness of persimmons, MCP before storage, ethanol after storage; conditions: for Pulp Firmness, Day 0 / Pulp Firmness, Day 1 / Pulp Firmness, Day 4: 1000 ppb of MCP
Procedure: Persimmons are harvested in Mogi das Cruzes—SP—Brazil and packed in RPC (Recycle Plastic Container) and shipped to Piracicaba—SP. At the same day of harvest part of the persimmons are packed in MAP bags. • Location: Brazil • Variety: Giombo (astringent and need to be treated with ethanol to be ready to eat) • Storage at 12° C. for 15 days • MAP Bag: a Nylon bag with dimensions of 27″ (68.6 cm) width by 28″ (71.1 cm) length made from Kenylon 6250 Polyamide Film available from FM Packaging. • MCP application before the storage • Ethanol Application after the storage
For the MAP bag used, the base film has 25 microns thickness without laser holes. The oxygen (O2) permeation of the MAP bag used is about 28 cc/m^2-day and the CO2 permeation is about 227 cc/m^2-day. The bags are laser drilled in the length direction with 105 micron holes at two locations 9″ (22.9 cm) from each side of the bag. The hole spacing is 9.06 mm. The total number of laser holes in the 20″ (8″ for tie off) length direction of the bag are about 228 holes. At an average hole diameter of 105 micron (pi×r^2=8630 micron^2), the 228 holes can provide an open area of ˜2.0 mm^2. The OTR of the bag is calculated to be 32,250 cm^3/day.
(§1) The Test Protocol is as follows. 4 MAP bags are packed. Each bag holds approximately 16 kg (36 lb) of persimmons. One such bag is packed in each RPC. Total weight of persimmons in MAP bags is approximately 64 kg. Approximately 64 kg of persimmons are placed into RPC identical to those used for the MAP bags.
(§2) The MAP-packaged persimmons are packaged as follows: 80 fruits, approximately 16 kg are carefully placed into microperforated bags, and the bags are sealed by twisting the open side of the bag, folding down the twisted end, and placing a rubber band around the twisted and folded end of the bag.
(§3) The appropriate weight of persimmons is placed in each bag after harvest and shipment. Bags are placed in RPC carrying devices. Persimmons are moved to a Cold Room at 12° C. next.
(§4) On the same day the persimmons are bagged, each treatment set is marked, placed in a hermetical chamber at the Cold Room. All chambers are of equal size and packed the same way. Treatment lasts for 12 hours. In the chambers for the “MCP” treatment groups, at the beginning of the treatment period, SmartTabs™ tablets are placed in the chamber. The amount of SmartTab™ tablets is chosen to achieve the indicated concentration of 1-methylcyclopropene in the atmosphere of the chamber.
Persimmons used in this trial are an astringent variety. To remove the astringency the fruits were treated with ethanol after the 15 days at cold storage.
After removed the bags for the MAP bag groups, all the fruits are placed in a hermetical chamber and treated with ethanol (3.5 mL/kg of fruit) for 12 hours.
After the treatment in the chambers, the RPCs are moved into racks at room temperature for storage and observation.
Firmness evaluation is as follows. Day “zero” was the day the persimmons are harvested and Day “one” is the day the persimmons are removed from the ethanol treatment.
(§5) For the Pulp Firmness evaluation, the persimmons have the skin removed with a peeler and the pulp firmness is measured with a Firmness Texture Analyzer (FTA) with a probe of 8 mm.

[2] = system: persimmons; assay: Example 2: pulp firmness of persimmons, 1-MCP and ethanol before storage; conditions: for Pulp Firmness, Day 0 / Pulp Firmness, Day 1 / Pulp Firmness, Day 4 / Pulp Firmness, Day 7 / Pulp Firmness, Day 10: 1000 ppb of MCP
Source text: This Example uses a similar test to Example 1 but with the ethanol application before the storage, at the same time as 1-MCP application.
Persimmons are harvested in Mogi das Cruzes—SP—Brazil and packed in RPC (Recycle Plastic Container) and shipped to Piracicaba—SP. At the same day of harvest part of the persimmons are packed in MAP bags.
as §1, §2, §3
On the same day the persimmons are bagged, each treatment set is marked, placed in a hermetical chamber at the Cold Room. All chambers are of equal size and packed the same way. Treatment lasts for 12 hours. In the chambers for the “MCP” treatment groups, at the beginning of the treatment period, SmartTabs™ tablets are placed in the chamber. The amount of SmartTab™ tablets is chosen to achieve the indicated concentration of 1-methylcyclopropene in the atmosphere of the chamber. At the same time the persimmons are exposed to ethanol with the purpose of removing the astringency (3.5 mL/kg of fruit).
After the storage at Cold Room, the bags are removed and the RPCs are moved into racks at room temperature for storage and observation.
Evaluation firmness is as follows. Day “zero” is the day the persimmons are harvested and Day “one” is the day the persimmons are removed from the cold storage.
as §5

[3] = system: persimmons, variety Fuyu; assay: Example 3: pulp firmness of persimmons, MCP before storage; conditions: for Pulp Firmness, Days 0 / Pulp Firmness, Days 3 / Pulp Firmness, Days 6: 500 ppb of MCP; for Pulp Firmness, Days 0: Day 0 after 60 days cold storage; for Pulp Firmness, Days 3: Day 3 after 60 days cold storage; for Pulp Firmness, Days 6: Day 6 after 60 days cold storage
Procedure: Persimmons are harvested in Madera—Calif. —USA and packed in cardboard boxes and shipped to Davis—Calif. At the same day of harvest part of the persimmons are packed in MAP bags. • Location: USA • Variety: Fuyu (non astringent, doesn't need ethanol application, ready to eat after harvest) • Storage at 0° C. for 60 days • MCP application before the storage • MAP Bag: Amcor bag type 30EF90.
The Amcor bag type 30EF90 has dimensions of 39.5″ (100.3 cm) wide and 35″ (88.9 cm) long. The bag is not perforated and has 25 microns thickness with an oxygen (O2) permeability of 6750 cc/[m^2 day]. The OTR of the bag is calculated to be 7560 cm^3/day.
as §1, with “10” for “16”, “(22.5” for “(36”, “RPC (Recycle Plastic Container).” for “RPC.”, “40” for “64”
The MAP-packaged persimmons are packaged as follows: 80 fruits, approximately 10 kg were carefully placed into microperforated bags, and the bags are sealed by twisting the open side of the bag, folding down the twisted end, and placing a rubber band around the twisted and folded end of the bag.
The appropriate weight of persimmons is placed in each bag after harvest and shipment. Bags are placed in RPC carrying devices. Persimmons then are moved to a Cold Room at 0° C.
as §4
After 60 days of storage at Cold Room, the bags are removed and the RPCs are moved into racks at room temperature for storage and observation.
Evaluation firmness is as follows. Day “zero” is the day the persimmons are removed from the cold storage.
as §5

[4] = system: persimmons, variety Rojo Brillante; assay: Example 4: pulp firmness of persimmons, MCP before storage, CO2 astringency removal after storage; conditions: cold storage, then room temperature for 7 days, MCP 600 ppb where applied
Procedure: Persimmons are harvested in Valencia—Spain and in the packing house part of the fruits are packed in plastic boxes and the other part is packed in MAP bags. • Location: Spain • Variety: Rojo Brillante (astringent, need CO2 application, ready to eat after astringency removal process) • Storage at 0° C. for 72 days • MCP application before the storage • MAP Bag: PE/EVA OP and Nylon bag with dimensions of 27″ (68.6 cm) width by 28″ (71.1 cm) length made from Kenylon 6250 Polyamide Film available from FM • Packaging
The Test Protocol is as follows. • a. PE/EVA OP Bags: 3 kg (6.6 lb) of fruits per bag, 5 bags per box and 6 RPC boxes • b. PE/EVA 8P Bags: 1 kg (2.2 lb) of fruits per bag, 15 bags per box and 6 RPC boxes • c. Nylon 0.2 and 0.35: 10 kg (22.5 lb) of fruits per bag, 2 bag per box and 6 RPC boxes • d. No Bag: 20 kg of fruits per box and 6 RPC boxes
The MAP-packaged persimmons are packaged as follows: fruits are carefully placed into microperforated bags, and the bags are sealed by twisting the open side of the bag, folding down the twisted end, and placing a rubber band around the twisted and folded end of the bag.
The appropriate weight of persimmons is placed in each bag after harvest and shipment. […]
For the Pulp Firmness evaluation, the persimmons have the skin removed with a peeler and the pulp firmness is measured with a Manual Penetrometer with a probe of 8 mm.

[5] = Day 0 = day of harvest, MCP 1000 ppb where applied

CC1=CC1 [SmartFresh, 1-methylcyclopropene]
Pulp Firmness, Day 0 ([1]; Bag MAP): 20.99 lbf | Pulp Firmness, Day 1 ([1]; Bag MAP): 18.62 lbf | Pulp Firmness, Day 4 ([1]; Bag MAP, Day 4): 18.18 lbf | Firmness results, Day 0 [1, 5]: 20.99 lbf | Firmness results, Day 1 ([1]; Day 1 = day removed from ethanol treatment, after 15 days at 12° C., MCP 1000 ppb where applied): 17.87 lbf | Firmness difference (Δ) as compared to the control group, Day 4 ([1]; Day 4): 0.89 lbf | Firmness results, Day 4 ([1]; Day 4, room temperature after 15 days at 12° C. and ethanol, MCP 1000 ppb where applied): 15.09 lbf | Firmness difference (Δ) as compared to the control group, Day 7 ([1]; Day 7): 1.55 lbf | Firmness results, Day 7 ([1]; Day 7, room temperature after 15 days at 12° C. and ethanol, MCP 1000 ppb where applied): 13.70 lbf | Firmness results, Day 10 ([1]; Day 10, room temperature after 15 days at 12° C. and ethanol, MCP 1000 ppb where applied): 12.62 lbf | Pulp Firmness, Day 0 ([1]; No Bag): 20.99 lbf | Pulp Firmness, Day 1 ([1]; No Bag): 16.65 lbf | Pulp Firmness, Day 4 ([1]; No Bag, Day 4): 14.74 lbf | firmness provided to the persimmons ([1]; after 1 day at room temperature): 0.15 lbf | Pulp Firmness, Day 0 ([2]; Bag MAP): 20.99 lbf | Pulp Firmness, Day 1 ([2]; Bag MAP, Day 1): 18.16 lbf | Pulp Firmness, Day 4 ([2]; Bag MAP, Day 4): 16.94 lbf | Pulp Firmness, Day 7 ([2]; Bag MAP): 15.84 lbf | Pulp Firmness, Day 10 ([2]; Bag MAP): 14.23 lbf | Firmness results, Day 0 [2, 5]: 20.99 lbf | Firmness difference (Δ) as compared to the control group, Day 1 ([2]; Day 1): 0.15 lbf | Firmness results, Day 1 ([2]; Day 1 = day removed from the cold storage (12° C.), MCP 1000 ppb where applied): 16.65 lbf | Firmness difference (Δ) as compared to the control group, Day 4 ([2]; Day 4): −0.39 lbf | Firmness results, Day 4 ([2]; Day 4, room temperature after cold storage, MCP 1000 ppb where applied): 14.74 lbf | Pulp Firmness, Day 0 ([2]; No Bag): 20.99 lbf | Pulp Firmness, Day 1 ([2]; No Bag, Day 1): 17.87 lbf | Pulp Firmness, Day 4 ([2]; No Bag, Day 4): 15.09 lbf | Pulp Firmness, Day 7 ([2]; No Bag): 13.70 lbf | Pulp Firmness, Day 10 ([2]; No Bag): 12.62 lbf | firmness provided to the persimmons ([2]; after 7 day at room temperature): 1.55 lbf | Firmness results, d60 + 3 day ([3]; 60 days at 0° C. + 3 days at room temperature, MCP 500 ppb where applied): 9.1 lbf | Firmness results, d60 + 6 day ([3]; 60 days at 0° C. + 6 days at room temperature, MCP 500 ppb where applied): 6.7 lbf | Firmness results, d60 + 0 day ([3]; 60 days at 0° C., day removed from the cold storage, MCP 500 ppb where applied): 7.9 lbf | Pulp Firmness, Days 0 ([3]; Bag MAP (Amcor)): 11.1 lbf | Pulp Firmness, Days 3 ([3]; Bag MAP (Amcor)): 10.0 lbf | Pulp Firmness, Days 6 ([3]; Bag MAP (Amcor)): 9.9 lbf | Pulp Firmness, Days 0 ([3]; No Bag): 7.9 lbf | Pulp Firmness, Days 3 ([3]; No Bag): 9.1 lbf | Pulp Firmness, Days 6 ([3]; No Bag): 6.7 lbf | Firmness difference (Δ) as compared to the control group, d60 + 6 day ([3]; d60 + 6 day): 6.2 lbf | firmness provided to the persimmons / maintained higher than the untreated fruits ([3]; in vivo): 6.2 lbf | Firmness [4]: 3.33 kg | Δ, difference between the firmness for the treatment and the firmness for the No Bag treatment [4]: 1.33 kg
